Substitutions are numbered along the chain they refer to.
Columns and labels:
hP2X7-2Nβ receptor = biological target: T1, hP2X7-2Nβ receptor (Homo sapiens, UniProt Q99572, I21V/M24R/N16P/N25R/Q22R/R20V/S23N/T19I/Y26L); test: two-electrode voltage clamp, Xenopus oocytes; format: cell-based; conditions: P2X7-2Nβ
T1 construct: expressed in transfected cells; host or cells: Xenopus laevis oocytes (cRNA injected)
T1 sequence (Q99572 1-595 N16P/T19I/R20V/I21V/Q22R/S23N/M24R/N25R/Y26L): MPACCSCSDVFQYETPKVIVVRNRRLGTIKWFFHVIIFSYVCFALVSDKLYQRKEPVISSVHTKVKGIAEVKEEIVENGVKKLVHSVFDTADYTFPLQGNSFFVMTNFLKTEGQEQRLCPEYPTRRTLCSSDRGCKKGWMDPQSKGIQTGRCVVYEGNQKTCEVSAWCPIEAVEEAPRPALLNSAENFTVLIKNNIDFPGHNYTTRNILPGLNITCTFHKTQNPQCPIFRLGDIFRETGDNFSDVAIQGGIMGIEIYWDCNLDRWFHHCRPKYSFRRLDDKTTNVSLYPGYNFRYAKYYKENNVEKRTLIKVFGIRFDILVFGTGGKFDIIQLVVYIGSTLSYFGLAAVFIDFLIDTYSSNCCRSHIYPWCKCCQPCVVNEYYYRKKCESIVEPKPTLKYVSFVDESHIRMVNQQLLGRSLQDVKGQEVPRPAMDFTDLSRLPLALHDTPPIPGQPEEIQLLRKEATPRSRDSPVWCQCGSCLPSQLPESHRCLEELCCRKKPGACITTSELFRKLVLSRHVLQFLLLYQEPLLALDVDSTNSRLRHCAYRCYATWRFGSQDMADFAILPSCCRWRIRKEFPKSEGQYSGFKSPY
Protocol: (§1) P2XR constructs were transcribed to produce sense-strand cRNA (mMessage mMachine, Ambion, Austin, TX). Manually defoliculated stage V Xenopus laevis oocytes were injected with 50 nl (50 ng) of cRNA using an Inject + Matic microinjector (J.A. Gaby, InjectMatic, Geneva, Switzerland) and stored at 16 °C in ND96 buffer (in mM, NaCl 96, KCl 2, CaCl2 1.8, MgCl2 1, sodium pyruvate 5, HEPES 5 (pH 7.6) supplemented with 50 µg/ml gentamycin and 50 µg/ml tetracycline). For electrophysiological recordings (3–7 days post-injection) oocytes were bathed in divalent free ND96 buffer (in mM, NaCl 96, KCl 2, sodium pyruvate 5, HEPES 5 and 0.1 flufenamic acid, pH 7.6).
(§2) ATP (sodium salt, Sigma) was applied via a U-tube perfusion system for 3 s at 3–5 minute intervals to allow reproducible responses to be recorded. […] To standardize for any change in ATP sensitivity at mutant receptors antagonists were co-applied with an EC90 concentration of ATP.
(§3) Concentration response curves were normalized to the maximal response and fitted with the Hill equation (variable slope) with GraphPad Prism 6 (Graphpad software, San Diego, CA). […] Individual concentration response curves were generated for individual experiments and statistical analysis was carried out on the data generated. In the figures the inhibition curves are fitted to the mean normalized data. Any significant differences were calculated by one-way analysis of variance, followed by Bonferroni’s test (using GraphPad Prism 6). Data are shown as mean ± SEM.

[1] = biological target: T2, hP2X7-2Nβ/P2X1 chimera 81–94 (Homo sapiens, UniProt Q99572, F88W/H85P/I21V/K81P/K82G/M24R/N16P/N25R/Q22R/R20V/S23N/S86Q/T19I/T90V/T94V/V84G/Y26L); test: two-electrode voltage clamp, Xenopus oocytes; format: cell-based; conditions: 81–94 chimera
T2 construct: expressed in transfected cells; host or cells: Xenopus laevis oocytes (cRNA injected)
T2 sequence (Q99572 1-595 N16P/T19I/R20V/I21V/Q22R/S23N/M24R/N25R/Y26L/K81P/K82G/V84G/H85P/S86Q/F88W/T90V/T94V): T1 sequence (Q99572 1-595 N16P/T19I/R20V/I21V/Q22R/S23N/M24R/N25R/Y26L) with K81P, K82G, V84G, H85P, S86Q, F88W, T90V, T94V
Source text: The hP2X1R was a gift from Dr Lin-Hua Jiang (University of Leeds, UK) and the hP2X1R cDNA has been described previously. Chimeras were generated by megaprimer-mediated domain swapping. In addition to chimeras, point mutations, deletions and insertions were made using the QuikChange (Stratagene) or Q5 (New England Bioscience) mutagenesis kits. The production of the correct mutations and absence of coding errors was verified by DNA sequencing (Automated ABI Sequencing Service, University of Leicester, UK).
as §1, §2, §3

In the case of `Nc1ncnc2c1ncn2[C@@H]1O[C@H](COP(=O)(O)OP(=O)(O)OP(=O)(O)O)[C@@H](O)[C@H]1O` [ATP], the Peak amplitude (hP2X7-2Nβ receptor; maximal ATP) is reported as 2.69 ± 0.19 μA and the Peak amplitude ([1]; maximal ATP) is reported as 0.76 ± 0.13 μA.

For `Cl.Cl.O=C(CC12CC3CC(CC(C3)C1)C2)Nc1cccc2nc(NCCNCCO)ccc12` [AZ10606120, N-[2-[[2-[(2-Hydroxyethyl)amino]ethyl]amino]-5-quinolinyl]-2-tricyclo[3.3.1.13,7]dec-1-ylacetamide dihydrochloride], the “Hill slope of AZ10606120 inhibition” value (hP2X7-2Nβ receptor; EC90 ATP) was 1.7 ± 0.24, the “% Inhibition with 30 nm AZ10606120” value (hP2X7-2Nβ receptor; response to EC90 ATP) was ~ 70% and the “peak current to ATP, % of the control response” value ([1]; in the presence of 3 µM AZ10606120) was 53.6 ± 2.6%.

From paper PMC5429621 (Scientific Reports, 2017)
